Data reported in patent publication US20250129045A1, “SMALL MOLECULE PIM AND MTOR KINASE INHIBITOR AND METHODS OF USE THEREOF” (Arizona Board of Regents on Behalf of the University of …, priority 2022, published 2025).
Entries after “also recorded” stand apart in the source; their conditions may differ. Read-outs that look alike come from different tables or passages of the source.

Assays:
[1] = tested on: T-cell acute lymphoblastic leukemia cell line DU528; experiment: Cell viability (XTT) assay in T-ALL cells; assay type: cell-based; conditions: 72 h, listed as VBT 1-34
Description: Cell viability (XTT) assay: T-ALL cells were seeded into 96 well plates at a density of 20,000 cells per well and treated with VBT-5445 for 72 h, using DMSO as control. Cell viability was measured using XTT cell proliferation assay (Trevigen Cat #4891-025-K) following the manufacturer's protocol. Briefly, XTT reagent was added to cell culture after the treatment and incubated for 4 h at 37° C. and 5% CO2. The absorbance of the colored formazan product was measured at 450 nm.

PC3-LN4 cells [2] = experiment: Western blotting of PC3-LN4 cell lysates; assay type: cell-based, human
Description: FIG. 7A: In vitro co-precipitation (Co-PPT) assay was performed with recombinant EDC3 and biotinylated Pim1 using Streptavidin beads with increasing concentrations of the Pim inhibitor VBT5445 (VBT). FIG. 7B: Kinase assays were performed with recombinant EDC3 and Pim1 with increasing concentrations of VBT. FIG. 7C: Cell lysates from PC3-LN4 cells cultured with DMSO, 10 μM VBT, 3 μM AZD5363 (AKTi) and the combination for 6 hrs were subjected to western blotting (WB). […] WBs were performed using the indicated antibodies. FIG. 7E: PC3-LN4 cells were seeded into 48 well plate and incubated with either DMSO, VBT, AZD5363 or the combination, for 4.5 days. A real-time imaging system (IncuCyte™) was used to measure cell proliferation using a non-label cell monolayer confluence approach. FIG. 7F-7H: GFP image in PC3 LN4 GFP EDC3 expressing cells treated with PIMi: VBT (5 μM) and VBT (5 μM)+AZD5363 (3 μM) for 6 hrs.
Extracts were subjected to Western blotting with the indicated antibodies.
Immunoblotting: Western blots were performed as described previously. Briefly, protein lysates (30 μg) were subjected to SDS-PAGE and transferred to nitrocellulose membranes. After blocking with 5% milk in TBST buffer for 30 min at room temperature, the membranes were incubated overnight at 4° C. with the Indicated primary antibody in 3% BSA in TBST. Specific proteins were detected with the corresponding HRP conjugated secondary antibody using enhanced chemiluminescence (GE Lifesciences, Piscataway, NJ).

PANC1 cells = experiment: Reverse-phase protein array (RPPA) of PANC1 cells, Table 3; assay type: cell-based; conditions: 6 h treatment, divided by zero-time value, average of triplicate
Description: To further examine how these compounds function to inhibit tumor growth, changes in both a wide variety of phosphoprotein and protein levels using reverse-phase protein arrays (RPPA) were evaluated. […] The values in the RPPA obtained at these two time points were divided by the value at time zero to allow an evaluation of the changes caused by each drug treatment.

[3] = Plasma pharmacokinetics after oral dosing in mice; assay type: in vivo, mouse
Description: Plasma concentrations of GRG-1-34: These concentrations were determined by high performance liquid chromatography (HPLC) tandem mass spectrometry (MS). Quantification was achieved by GRG-1-34 calibration standards prepared in mouse plasma. GRG-1-34 in calibration standards or authentic samples was extracted by protein precipitation with methanol. After centrifugation, the supernatant was injected onto the HPLC-MS system. HPLC separation was achieved using a C-18 column and a gradient mobile phase of water and acetonitrile, both with 0.1% formic acid. The mass spectrometer was operated in the electrospray positive ion mode with selective reaction monitoring. The calibration curve was linear over the plasma concentration range of 2-1800 ng/ml. The pharmacokinetic analysis was performed using PKSolver 2.0 by a noncompartmental analysis. Murine gavage with GRG 1-34 was approved by the Animal Care Committee of the University of Arizona.
To examine the pharmacokinetics of this class of com-pounds GRG 1-34, one of the active isoforms, was given orally and blood was sampled from 3 mice at each time point (FIG. 21). The plasma concentration of GRG-1-34 peaked at 0.5 h after oral dosing and declined as a function of time. […] It has a large apparent volume of distribution (VZ/F) and apparent systemic clearance (CL/F), likely attributed to low systemic bioavailability (F) after oral dosing. At the maximum blood concentration of […], GRG-1-34 reached a concentration of 4 μM which in cell culture was sufficient to inhibit cell growth.

Prostate Cancer Growth = experiment: SAR studies using inhibition of prostate cancer growth as a readout; assay type: cell-based; conditions: SAR by substituent position
DU145 prostate cancer = DU145 prostate cancer growth (crystal violet, 7 days); assay type: cell-based; conditions: 7 days of growth
Description: Cells were plated at 1000 cells per well and 24 h later treated with GRG compounds. After 7 days of growth, tumor cells were fixed with 4% paraformaldehyde, stained with 0.5% crystal violet in methanol and lysed in SDS. The absorbance of six samples treated with each compound or DMSO control was read at 570 nm. The error bars represent the Standard Deviation of these measurements
Cell growth was measured as in FIG. 17.

PC3-LN4 cells [4] = experiment: Western blotting of PC3-LN4 cell lysates; assay type: cell-based, human; conditions: PC3-LN4 cells with CRISPR/CAS9 knockout of TSC2 or DEPDC5

## O=c1c(CNCc2cc(Br)ccn2)cc2ccc(Cl)cc2n1CCOc1ccccc1 [GRG-1-34, 3-((((4-bromopyridin-2-yl)methyl)amino)methyl)-7-chloro-1-(2-phenoxyethyl) quinolin-2 (1H)-one]
[1]
  growth of T-acute lymphoblastic leukemia cells: inhibits the growth; also recorded: shows activity
PC3-LN4 cells [2]
  cellular level of Pim kinases: decreases
  cellular level of c-Myc protein: decreases
  mTORC1 activity: phosphorylation of the S6 protein: inhibited the phosphorylation of the mTORC1 substrate S6 protein
  phosphorylation of AKT on serine 473: increased the phosphorylation of AKT on serine 473
PC3-LN4 cells [2]; listed as VBT 1-34
  mTORC1 activity: phosphorylation of the S6 protein: decreases
PANC1 cells
  4EBP1S65, RPPA value after treatment / zero-time value: 0.52
  4EBP1T70, RPPA value after treatment / zero-time value: 0.75
  ATMS1981, RPPA value after treatment / zero-time value: 0.46
  CICaspase3D175, RPPA value after treatment / zero-time value: 1.09
  CofilinS3, RPPA value after treatment / zero-time value: 0.46
  CrkIIY221, RPPA value after treatment / zero-time value: 1.58
  ERKT202_Y204, RPPA value after treatment / zero-time value: 2.39
  FAKY576_577, RPPA value after treatment / zero-time value: 0.78
  FKHR-FOX01S256, RPPA value after treatment / zero-time value: 0.71
  GSK3a_bS21_9, RPPA value after treatment / zero-time value: 1.66
  HistoneH2AXS139, RPPA value after treatment / zero-time value: 0.76
  HistoneH3S10, RPPA value after treatment / zero-time value: 0.69
  IL-1bcleavedD116, RPPA value after treatment / zero-time value: 0.41
  Jak1Y1022_1023, RPPA value after treatment / zero-time value: 0.79
  MAPKpTEpY, RPPA value after treatment / zero-time value: 1.35
  PDGFRbY751, RPPA value after treatment / zero-time value: 7.02
  PP1aT320, RPPA value after treatment / zero-time value: 0.47
  PaxillinY118, RPPA value after treatment / zero-time value: 1.08
  RetY905, RPPA value after treatment / zero-time value: 0.77
  S6RibosomalPS235_236, RPPA value after treatment / zero-time value: 1.05
  S6RibosomalProtein S240_244, RPPA value after treatment / zero-time value: 0.95
  SAPK_JNKT183_Y185, RPPA value after treatment / zero-time value: 0.85
  Stat2Y690, RPPA value after treatment / zero-time value: 2.89
  Stat3Y705, RPPA value after treatment / zero-time value: 1.57
  Tyk2Y1054_1055, RPPA value after treatment / zero-time value: 0.39
  VEGFR2Y1175, RPPA value after treatment / zero-time value: 0.54
  YAPS127, RPPA value after treatment / zero-time value: 0.68
  cAbIY245, RPPA value after treatment / zero-time value: 0.87
  cKitY703, RPPA value after treatment / zero-time value: 1.8
  p38MAPKT180_Y182, RPPA value after treatment / zero-time value: 1.15
  p70S6KS371, RPPA value after treatment / zero-time value: 0.62
  p70S6KT389, RPPA value after treatment / zero-time value: 0.74
  p90RSKS380, RPPA value after treatment / zero-time value: 1.51
[3]; mouse, plasma, 62 mg/kg, oral, read-out: half-life (T1/2) (converted)
  half-life: 2.08 h
[3]; mouse, plasma, oral, dose of 62 mg/kg, read-out: average maximum plasma concentration (Cmax)
  Cmax: 1990 ng/mL
[3]; oral
  apparent systemic clearance (CL/F): large
  maximum blood concentration: 2 ng/mL
[3]; oral (gavage)
  time at which the plasma concentration peaked after oral dosing: 0.5 h
[3]; oral, level sufficient in cell culture to inhibit growth
  blood concentration reached at the maximum, molar: 4 µM
Prostate Cancer Growth
  Activity (inhibition of prostate cancer growth): 6 active compounds
DU145 prostate cancer
  DU145 prostate cancer growth: Inhibition
DU145 prostate cancer; listed as VBT 1-34
  DU145 prostate cancer growth: shows activity
PC3-LN4 cells [4]
  mTORC activity in TSC2 or DEPDC5 KO prostate tumor cells: inhibits mTORC
